From ChEMBL document CHEMBL5233219, “Diarylamides in anticancer drug discovery: A review of pre-clinical and clinical investigations” (Eur J Med Chem, 2020)
pIC50: −log10 of the molar value. Values belong to the compound of their own block, whether it stands above or below them.

Experiments:
HS27 = test: Cytotoxicity against human HS27 cells; type: functional, cell-based
[1] = molecular target: T1, Macrophage colony-stimulating factor 1 receptor (Homo sapiens, UniProt P07333); test: Inhibition of FMS (unknown origin) relative to control; details: concentration not given here
T1 sequence (P07333 whole entry): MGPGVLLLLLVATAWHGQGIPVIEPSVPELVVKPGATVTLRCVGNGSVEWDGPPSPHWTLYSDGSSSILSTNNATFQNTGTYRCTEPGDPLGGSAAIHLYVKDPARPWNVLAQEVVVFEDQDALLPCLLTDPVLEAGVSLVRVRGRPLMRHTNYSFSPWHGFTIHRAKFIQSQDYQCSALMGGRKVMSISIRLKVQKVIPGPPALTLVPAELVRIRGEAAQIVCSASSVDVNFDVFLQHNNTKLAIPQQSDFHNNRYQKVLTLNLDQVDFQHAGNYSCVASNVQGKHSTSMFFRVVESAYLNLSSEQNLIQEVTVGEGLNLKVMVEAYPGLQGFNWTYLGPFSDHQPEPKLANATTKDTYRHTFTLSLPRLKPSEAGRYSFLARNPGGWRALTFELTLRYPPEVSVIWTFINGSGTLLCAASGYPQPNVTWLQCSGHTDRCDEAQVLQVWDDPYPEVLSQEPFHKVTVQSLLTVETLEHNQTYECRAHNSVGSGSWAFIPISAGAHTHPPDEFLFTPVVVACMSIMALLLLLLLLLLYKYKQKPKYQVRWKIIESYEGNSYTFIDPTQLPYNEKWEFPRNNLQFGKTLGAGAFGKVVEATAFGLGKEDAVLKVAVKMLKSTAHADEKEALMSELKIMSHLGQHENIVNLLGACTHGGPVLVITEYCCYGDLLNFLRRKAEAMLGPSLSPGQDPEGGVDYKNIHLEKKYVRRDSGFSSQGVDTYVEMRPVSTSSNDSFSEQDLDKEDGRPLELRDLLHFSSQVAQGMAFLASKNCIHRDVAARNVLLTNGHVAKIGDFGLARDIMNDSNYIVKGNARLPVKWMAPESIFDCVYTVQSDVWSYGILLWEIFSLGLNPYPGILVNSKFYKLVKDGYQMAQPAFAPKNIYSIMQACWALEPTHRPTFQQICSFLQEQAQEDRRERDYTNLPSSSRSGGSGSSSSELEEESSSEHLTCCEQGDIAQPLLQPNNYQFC

DU-145 = test: Antiproliferative activity against human DU-145 cells assessed as inhibition of cell growth; type: functional, cell-based
T47D = test: Antiproliferative activity against human T47D cells assessed as inhibition of cell growth relative to control; type: functional; design: scale not given: the % may be the effect or the level left
SK-OV-3 [2] = test: Antiproliferative activity against human SK-OV-3 cells assessed as inhibition of cell growth relative to control; type: functional; design: scale not given: the % may be the effect or the level left
OVCAR-3 = test: Antiproliferative activity against human OVCAR-3 cells assessed as inhibition of cell growth; type: functional, cell-based
SK-OV-3 [3] = test: Antiproliferative activity against human SK-OV-3 cells assessed as inhibition of cell growth; type: functional, cell-based
Macrophage = test: Cytotoxicity against human Macrophage cells relative to control; type: functional
[4] = molecular target: T1, Macrophage colony-stimulating factor 1 receptor; test: Inhibition of FMS (unknown origin)
IGROV-1 = test: Antiproliferative activity against human IGROV-1 cells assessed as inhibition of cell growth relative to control; type: functional; design: scale not given: the % may be the effect or the level left
[5] = Cytotoxicity against human A375P cells; type: functional, cell-based
[6] = Antiproliferative activity against human A375P cells; type: functional, cell-based
[7] = Cytotoxicity against human HUVEC cells; type: toxicity, cell-based
OVCAR-5 = test: Antiproliferative activity against human OVCAR-5 cells assessed as reduction in cell viability; type: functional, cell-based
[8] = test system: Panel NCI-60 (60 carcinoma cell lines); test: Antiproliferative activity against human Panel NCI-60 (60 carcinoma cell lines) assessed as reduction in cell viability; type: functional
MCF7 = test: Anticancer activity against human MCF7 cells assessed as inhibition of cell growth; type: functional; design: scale not given: the % may be the effect or the level left
MOLT-4 = test: Anticancer activity against human MOLT-4 cells assessed as inhibition of cell growth; type: functional; design: scale not given: the % may be the effect or the level left
MDA-MB-468 = test: Anticancer activity against human MDA-MB-468 cells assessed as inhibition of cell growth; type: functional; design: scale not given: the % may be the effect or the level left
[9] = Antitumor activity against human OVCAR cells implanted in mouse assessed as tumor growth inhibition; type: functional
[10] = Antiproliferative activity against human OVCAR assessed as reduction in cell viability; type: functional, cell-based
[11] = test system: Panel NCI-60 (60 carcinoma cell lines); test: Antiproliferative activity against human Panel NCI-60 (60 carcinoma cell lines) assessed as reduction in cell viability at 10 uM; type: functional
[12] = Plasma concentration in mouse at 100 mg/kg, po administered once daily; type: ADME, organism-based; details: in vivo
[13] = Half life in mouse at 100 mg/kg, po administered once daily; details: in vivo
[14] = AUC in mouse at 100 mg/kg, po administered once daily; type: ADME, organism-based; design: dose 100 mg/kg, route po; details: in vivo
[15] = Oral bioavailability in mouse at 100 mg/kg administered once daily; type: ADME, organism-based; details: in vivo
[16] = Plasma protein binding in mouse at 100 mg/kg, po administered once daily; type: ADME, organism-based; details: read-out: PPB (converted)
[17] = Volume of distribution in human; type: ADME
[18] = Volume of distribution in mouse at 100 mg/kg, po administered once daily; type: ADME, organism-based; details: in vivo
[19] = Cmax in male mouse plasma; type: ADME, cell-free
[20] = Plasma concentration in mouse at 400 to 600 mg/kg, po administered once daily; type: ADME, organism-based; details: in vivo, dose 400-600 mg/kg
[21] = Inhibition of tyrosine kinase (unknown origin) in human LNCaP-abl cells
Cytochrome P450 1A2 = molecular target: T2, Cytochrome P450 1A2 (Homo sapiens, UniProt P05177); test: Inhibition of CYP1A2 (unknown origin); type: ADME
T2 sequence (P05177 whole entry): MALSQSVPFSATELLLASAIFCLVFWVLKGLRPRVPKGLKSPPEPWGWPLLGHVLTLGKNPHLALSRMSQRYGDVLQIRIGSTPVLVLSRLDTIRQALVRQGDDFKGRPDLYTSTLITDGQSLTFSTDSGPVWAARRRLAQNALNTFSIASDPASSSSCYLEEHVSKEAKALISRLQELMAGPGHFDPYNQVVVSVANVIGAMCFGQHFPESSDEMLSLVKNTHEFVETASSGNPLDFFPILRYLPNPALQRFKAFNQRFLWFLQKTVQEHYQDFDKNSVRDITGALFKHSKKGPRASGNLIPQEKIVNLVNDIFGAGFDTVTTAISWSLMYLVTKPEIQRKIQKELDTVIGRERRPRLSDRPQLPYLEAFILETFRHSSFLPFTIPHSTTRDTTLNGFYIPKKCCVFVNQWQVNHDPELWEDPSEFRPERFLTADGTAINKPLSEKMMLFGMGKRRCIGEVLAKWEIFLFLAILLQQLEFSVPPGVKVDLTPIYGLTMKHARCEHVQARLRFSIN

[22] = Cmax in mouse plasma; type: ADME, cell-free
SCH = test: Antiproliferative activity against human SCH cells assessed as reduction in cell viability; type: functional, cell-based
[23] = Oral bioavailability in mouse at 400 to 600 mg/kg; type: ADME, organism-based; details: in vivo, dose 400-600 mg/kg
[24] = Cmax in female mouse plasma; type: ADME, cell-free
Cytochrome P450 2D6 = Cytochrome P450 2D6 (Homo sapiens, UniProt P10635); test: Inhibition of CYP2D6 (unknown origin); type: ADME
Chain of Cytochrome P450 2D6 (P10635 whole entry): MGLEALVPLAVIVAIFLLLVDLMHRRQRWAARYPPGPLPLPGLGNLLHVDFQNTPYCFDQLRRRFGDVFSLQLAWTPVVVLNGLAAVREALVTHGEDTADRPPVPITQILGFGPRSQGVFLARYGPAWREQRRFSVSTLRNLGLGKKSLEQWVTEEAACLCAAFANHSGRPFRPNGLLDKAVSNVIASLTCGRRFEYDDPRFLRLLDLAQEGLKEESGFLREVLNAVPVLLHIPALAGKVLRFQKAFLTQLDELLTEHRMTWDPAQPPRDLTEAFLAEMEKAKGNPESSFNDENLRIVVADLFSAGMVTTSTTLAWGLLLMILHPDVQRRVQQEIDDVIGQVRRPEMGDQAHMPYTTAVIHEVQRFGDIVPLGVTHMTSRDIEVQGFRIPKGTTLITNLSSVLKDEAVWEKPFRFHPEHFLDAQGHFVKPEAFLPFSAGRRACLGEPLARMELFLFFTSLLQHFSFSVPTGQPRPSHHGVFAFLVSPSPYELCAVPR

[25] = Oral bioavailability in mouse; type: ADME, organism-based; details: in vivo
[26] = Inhibition of tyrosine kinase (unknown origin); design: species or system Homo sapiens
Cytochrome P450 2C19 = Cytochrome P450 2C19 (Homo sapiens, UniProt P33261); test: Inhibition of CYP2C19 (unknown origin); type: ADME
Chain of Cytochrome P450 2C19 (P33261 whole entry): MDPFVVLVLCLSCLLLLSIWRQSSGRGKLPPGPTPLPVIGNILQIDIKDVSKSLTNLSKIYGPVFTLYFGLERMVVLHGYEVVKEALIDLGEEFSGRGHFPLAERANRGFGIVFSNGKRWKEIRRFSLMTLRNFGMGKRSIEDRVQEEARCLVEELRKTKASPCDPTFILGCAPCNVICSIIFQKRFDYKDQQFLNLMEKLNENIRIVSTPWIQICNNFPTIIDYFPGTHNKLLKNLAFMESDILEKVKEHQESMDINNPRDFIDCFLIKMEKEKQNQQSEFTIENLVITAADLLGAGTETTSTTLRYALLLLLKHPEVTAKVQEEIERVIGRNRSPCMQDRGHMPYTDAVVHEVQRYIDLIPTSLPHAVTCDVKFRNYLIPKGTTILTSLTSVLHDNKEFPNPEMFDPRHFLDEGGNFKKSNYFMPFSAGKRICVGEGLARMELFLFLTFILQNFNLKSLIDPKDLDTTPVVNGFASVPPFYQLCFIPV

[27] = AUC in mouse at 400 to 600 mg/kg, po administered once daily; type: ADME, organism-based; design: route po; details: in vivo, dose 400-600 mg/kg
[28] = Plasma concentration in mouse at 150 to 400 mg/kg, po administered twice daily; type: ADME, organism-based; details: in vivo, dose 150-400 mg/kg
[29] = Half life in mouse at 150 to 400 mg/kg, po administered twice daily; type: ADME, organism-based; details: in vivo, dose 150-400 mg/kg
[30] = mouse, in vivo, po
Description: Volume of distribution in mouse at 150 to 400 mg/kg, po administered twice daily

[31] = Plasma protein binding in mouse at 150 to 400 mg/kg, po administered twice daily; type: ADME, organism-based; details: dose 150-400 mg/kg, read-out: PPB (converted)
[32] = Drug excretion in rat feces assessed as cumulative amount of unchanged drug excreted at 10 mg/kg, po; type: ADME, organism-based; details: faeces, read-out: Drug excretion
[33] = Tmax in human; type: ADME
[34] = Drug absorption in mouse at 400 mg/kg, po; type: ADME, organism-based; details: in vivo, read-out: Drug absorption
[35] = Half life in human; type: ADME
[36] = AUC in mouse at 150 to 400 mg/kg, po administered twice daily; type: ADME, organism-based; design: route po; details: in vivo, dose 150-400 mg/kg
[37] = Oral bioavailability in mouse at 150 to 400 mg/kg administered twice daily; type: ADME, organism-based; details: in vivo, dose 150-400 mg/kg

inhibition [1]: 90%
pIC50 (DU-145): 7.01
pIC50 (OVCAR-3): 7.35
pIC50 (SK-OV-3 [3]): 5.44
pIC50 [4]: 7.52
Compound: O=C(Nc1cccc(-n2ccc3c(NC(=O)c4ccccc4)nccc32)c1)c1ccc(N2CCOCC2)c(C(F)(F)F)c1
pIC50 (HS27): 6.52
Activity (T47D): 90%
Activity (SK-OV-3 [2]): 106.2%
Activity (Macrophage): 52%
Activity (IGROV-1): 90%

Compound: CCN1CCN(Cc2ccc(NC(=O)Nc3ccc(-n4ccc5c(NC(=O)c6ccccc6)nccc54)cc3)cc2C(F)(F)F)CC1
pIC50 (HS27): 5.11
pIC50 [5]: 7.00

Compound: Cc1ccc(NC(=O)Nc2cc(F)cc(C(F)(F)F)c2)cc1Nc1cc(=O)[nH]c(N)n1
pIC50 [6]: 6.72

Compound: COc1ccc(-c2nc3c(Nc4ccc(NC(=O)c5cccc(Cl)c5)cc4)nc(C)nc3o2)cc1
pIC50 [7]: 5.89

Compound: Cc1nc(Nc2ccc(NC(=O)c3cccc(Cl)c3)cc2)c2nc(-c3ccc(Cl)cc3)oc2n1
pIC50 [7]: 5.88

pIC50 (OVCAR-5): 5.88
Compound: COc1ccc(-c2nn(-c3ccc(NC(=O)c4ccc(Cl)c(C(F)(F)F)c4)cc3)cc2-c2ccncc2)cc1Cl
Activity [8]: 103.16%

Compound: COc1cc2cc3c(nc2cc1OC)CCN3Cc1ccc(NC(=O)c2ccc(Cl)c(C(F)(F)F)c2)cc1
Activity (MCF7): 84.97%
Activity (MOLT-4): 43.19%
Activity (MDA-MB-468): 87.13%

Compound: Cc1ccc(NC(=O)Nc2ccc(Cl)nc2)cc1Nc1cc(=O)[nH]c(N)n1
pIC50 [6]: 6.72

Compound: O=C(Nc1ccc(-n2ccc3c(NC(=O)c4ccccc4)ncnc32)cc1)Nc1cccc(Cl)c1Cl
TGI [9]: 1800 nM
pIC50 [10]: 5.44
Activity [11]: 109.18%

Compound: Cc1nc(Nc2ncc(C(=O)Nc3c(C)cccc3Cl)s2)cc(N2CCN(CCO)CC2)n1.O [DASATINIB]
Cp [12]: 129 ng/mL
half-life [13]: 3 h
AUC [14]: 48.8 ng·h/mL
bioavailability [15]: 14%
fraction unbound [16]: 0.04
Vd [17]: 2.05 L
Vd [18]: 2.052 L

Cmax [19]: 921 ng/mL
Cp [20]: 3.7 ng/mL
pIC50 [21]: 6.73
inhibition (INH) (Cytochrome P450 1A2): 10%
Cmax [22]: 1.9 ng/mL
bioavailability [23]: 98.3%
Cmax [24]: 1080 ng/mL
inhibition (INH) (Cytochrome P450 2D6): 10%
bioavailability [25]: 98.3%
pIC50 [26]: 7.52
inhibition (INH) (Cytochrome P450 2C19): 10%
AUC [27]: 24800 ng·h/mL
Compound: Cc1ccc(NC(=O)c2ccc(CN3CCN(C)CC3)cc2)cc1Nc1nccc(-c2cccnc2)n1 [IMATINIB]
pIC50 (SCH): 5.33

Cp [28]: 445 ng/mL
half-life [29]: 13 h
Vd [30]: 0.55 L/kg
fraction unbound [31]: 0.02
dose excreted [32]: 69%
Tmax [33]: 3 h
Fa [34]: 35%
half-life [35]: 17 h
AUC [36]: 11.9 ng·h/mL
pIC50 [26]: 6.73
bioavailability [37]: 25%
Compound: Cc1cn(-c2cc(NC(=O)c3ccc(C)c(Nc4nccc(-c5cccnc5)n4)c3)cc(C(F)(F)F)c2)cn1 [NILOTINIB]
pIC50 (SCH): 4.84

Compound: CNC(=O)c1cc(Oc2ccc(NC(=O)Nc3ccc(Cl)c(C(F)(F)F)c3)cc2)ccn1 [SORAFENIB]
pIC50 (HS27): 5.11
pIC50 [5]: 7.02
